According to PMC8318231, “Rate-of-Kill (RoK) assays to triage large compound sets for Chagas disease drug discovery: Application to GSK Chagas Box” (PLoS Neglected Tropical Diseases, 2021):

System: T. cruzi intracellular amastigotes in H9c2 cells
Assay: Rate-of-Kill (RoK) high-content imaging assay, amastigotes per cell (AM/CELL) and curve descriptors
Format: cell-based, Trypanosoma cruzi
Design: key to ME_24h / ME_48h / ME_72h: % reduction in parasite burden (cidal response); t50pct_MCC50 / t50pct_Cmax: unit not given here
Details: for ME_24h: 24h; for ME_48h: 48h; for ME_72h: 72h; for tlag_Cmax / t50pct_Cmax / t50%_Cmax: at Cmax; for ME_24h (%): maximum effect at 24 h; for ME_24h (%) / ME_48h (%) / ME_72h (%): RoK assay; for ME_48h (%): maximum effect at 48 h; for ME_72h (%): maximum effect at 72 h; for ME 24h (maximum effect at 24 hours, intracellular amastigotes): maximum percentage of parasite burden reduction reached by any concentration
Method in brief: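 Readouts at each time point are amastigotes per cell and host nuclei count (cytotoxicity), from DRAQ5 high-content imaging. Infection: trypomastigotes on H9c2 at MOI 8 for 18 h. Dosing was 5 μM single point or 11 points, 1/3 steps from 50 μM. Effect scaled between 4 h infected and uninfected controls.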

Structure (SMILES) | ME_24h (figure 5) | ME_48h (figure 5) | ME_72h (figure 5) | MCC50 (RoK curve descriptor) [µM] | MCCE (RoK curve descriptor) [µM] | AM/CELL NORM (Time 4, sheet figure 4 A) | AM/CELL NORM (Time 24, sheet figure 4 A) | AM/CELL NORM (Time 48, sheet figure 4 A) | AM/CELL NORM (Time 72, sheet figure 4 A) | tlag_Cmax [h] | t50pct_Cmax (figure 5) | tlag_Cmax (figure 5) | t50%_MCC50 (at MCC50) [h] | t50pct_MCC50 (at MCC50, figure 5) | tlag_MCC50 (at MCC50, figure 5) | MCCE (figure 5) | ME_24h (%) | ME_48h (%) | ME_72h (%) | ME 24h (maximum effect at 24 hours, intracellular amastigotes) [%] | other results
Cn1cncc1CN1CCC2(CC1)COC(Cc1ccccc1)C2 (centres unmarked) [TCMDC-143502] | -3.518 | 29.7799 | 64.8887 | 5.6 | 1.9 | 12.5806 | -3.518 | -12.3342 | 16.2947 | 48.0 | 72 | 48 | 72.0 | 72 | 24 | 1.852 | -3.5 | 29.8 | 64.9 | -3.518 | tlag_MCC50 (at MCC50): 24.0 h; MCC50 (figure 5, in µM): 5.556
CN(C)Cc1ccc(-c2ccc(S(=O)(=O)NCC3CCCO3)c(F)c2)cc1.O=C(O)C(F)(F)F (centres unmarked) [TCMDC-143085] | -52.4333 | 20.7837 | 66.9859 | 1.9 | 0.6 | -2.755 | -52.4333 | 10.0788 | 59.3639 | 24.0 | 72 | 24 | 72.0 | 72 | 24 | 0.6173 | -52.4 | 20.8 | 67.0 | -52.4333 | t50%_Cmax: 72.0 h; tlag_MCC50 (at MCC50): 24.0 h; MCC50 (figure 5, in µM): 1.852
CC(=O)Nc1ccc(-c2noc(CC3CCCN(Cc4cccc(F)c4C)C3)n2)cc1 (centres unmarked) [TCMDC-143362] | 28.3063 | 60.2253 | 68.1396 | 5.6 | 1.9 | – | – | – | – | 4.0 | 48 | 4 | 72.0 | 72 | 24 | 1.852 | 28.3 | 60.2 | 68.1 | 73.518 | AM/CELL NORM (Time 4, figure 4 A): -3.298; AM/CELL NORM (Time 24, figure 4 A): 28.3063; AM/CELL NORM (Time 48, figure 4 A): 60.2253; AM/CELL NORM (Time 72, figure 4 A): 68.1396; t50%_Cmax: 48.0 h; tlag_MCC50 (at MCC50): 24.0 h; MCC50 (figure 5, in µM): 5.556
Cc1nn(C)c(Cl)c1CN(Cc1cccnc1)Cc1ccsc1 [TCMDC-143477] | -46.0078 | -102.792 | -13.578 | – | 0.6 | -6.323 | -46.0078 | -102.792 | -72.3369 | 48.0 | 72 | 48 | – | 72 | 72 | 0.6173 | -46.0 | -102.8 | -13.6 | -46.0078 | MCC50 (figure 5): 50 µM
CN(C(=O)Nc1ccc2c(c1)CCN(C1CCC1)CC2)c1ccc(C#N)cc1.Cl [TCMDC-143526] | -107.476 | -30.6533 | 30.9234 | – | 1.9 | 4.08 | -107.476 | -30.6533 | 30.9234 | 24.0 | 72 | 24 | – | 72 | 72 | 1.852 | -107.5 | -30.7 | 30.9 | -107.476 | MCC50 (figure 5): 50 µM
O=C(C1CCCCC1)N1CCN(c2nnc(-c3ccccc3)c3ccccc23)CC1 [TCMDC-143511] | -40.3218 | 29.1145 | 87.9479 | 5.6 | 1.9 | -0.05415 | -40.3218 | 2.791 | 87.9479 | 24.0 | 72 | 24 | 72.0 | 72 | 24 | 1.852 | -40.3 | 29.1 | 88.0 | -40.3218 | t50%_Cmax: 72.0 h; tlag_MCC50 (at MCC50): 24.0 h; MCC50 (figure 5, in µM): 5.556
COc1cc(-c2nc(N3CCOCC3)sc2-c2ccnc(NC3CCOCC3)n2)ccc1Cl.O=C(O)C(F)(F)F [TCMDC-143414] | -30.3967 | 4.32 | 10.4319 | – | 0.34 | -8.885 | -7.51 | 27.1663 | 39.4258 | 14.0 | 72 | 14 | – | 72 | 72 | 0.3429 | -30.4 | 4.3 | 10.4 | -7.51 | MCC50 (figure 5): 50 µM
O=C(NCCc1ccccn1)C(c1cn[nH]c1)N1CCN(c2ccc(Cl)c(Cl)c2)CC1 (centres unmarked) [TCMDC-143411] | -24.7459 | 74.9666 | 99.2836 | 16.7 | 0.2 | 6.745 | -24.7459 | 74.9666 | 99.2836 | 24.0 | 48 | 24 | 72.0 | 72 | 24 | 0.2058 | -24.8 | 75.0 | 99.3 | -24.7459 | t50%_Cmax: 48.0 h; tlag_MCC50 (at MCC50): 24.0 h; MCC50 (figure 5, in µM): 16.6667
Cc1c(C(C)NC(=O)Nc2cccc(Cl)c2)sc2ncnn12 (centres unmarked) [TCMDC-143405] | -289.196 | -32.4517 | 41.1216 | – | 0.07 | -4.394 | -289.196 | -32.4517 | -0.1706 | 24.0 | 72 | 24 | – | 72 | 72 | 0.06859 | -289.2 | -32.5 | 41.1 | -289.196 | MCC50 (figure 5): 50 µM
CCCCNc1nccc(-c2c(-c3ccc(F)cc3)nn3c(N4CCOCC4)cccc23)n1 [TCMDC-143617] | -170.943 | -538.575 | -488.335 | – | 5.6 | -16.0226 | -225.539 | -1143.86 | -2417.88 | 72.0 | 72 | 72 | – | 72 | 72 | 5.556 | -170.9 | -538.6 | -488.3 | -170.943 | MCC50 (figure 5): 50 µM
Fc1ccc(OC2CC(NCc3cccc4cn[nH]c34)C2)cc1C(F)(F)F (centres unmarked) [TCMDC-143455] | 25.577 | 44.8387 | 61.893 | 5.6 | 0.2 | – | – | – | – | 24.0 | 72 | 24 | 72.0 | 72 | 24 | 0.2058 | 25.6 | 44.8 | 61.9 | 107.523 | AM/CELL NORM (Time 4, figure 4 A): 30.3216; AM/CELL NORM (Time 24, figure 4 A): 25.577; AM/CELL NORM (Time 48, figure 4 A): 44.8387; AM/CELL NORM (Time 72, figure 4 A): 61.893; t50%_Cmax: 72.0 h; tlag_MCC50 (at MCC50): 24.0 h; MCC50 (figure 5, in µM): 5.556
COc1ccc(CN(C)Cc2ccncc2)cc1-c1ccc(S(=O)(=O)NC2CCC2)s1.O=C(O)C(F)(F)F.O=C(O)C(F)(F)F [TCMDC-143084] | -28.7145 | 25.1182 | 44.4783 | – | 0.6 | -8.521 | -28.7145 | 25.1182 | 44.4783 | 24.0 | 72 | 24 | – | 72 | 72 | 0.6173 | -28.7 | 25.1 | 44.5 | -28.7145 | MCC50 (figure 5): 50 µM
